Values after ≈ are worked out from the molar mass of the structure shown. Read-outs that look alike come from different tables or passages of the source.
Assays:
JAK1 = biological target: T1, JAK1 (Homo sapiens, UniProt P23458); assay: JAK Family Selectivity Assay: JAK1 vs JAK2 binding affinity; conditions: Kd JAK1 over Kd JAK2
T1 construct: made in house; host or cells: T7 phage in BL21-derived E. coli or HEK-293 cells
Method: (§1) Provided compounds are evaluated for selectivity by comparing their JAK2 binding affinity (Kd) in the above JAK2 Binding Assay with their binding affinity (Kd) for one or more other kinases. Binding affinity for other kinases is determined as follows: Kinase-tagged T7 phage strains are prepared in an E. coli host derived from the BL21 strain. E. coli are grown to log-phase and infected with T7 phage and incubated with shaking at 32° C. until lysis. The lysates are centrifuged and filtered to remove cell debris. The remaining kinases are produced in HEK-293 cells and subsequently tagged with DNA for qPCR detection. Streptavidin-coated magnetic beads are treated with biotinylated small molecule ligands for 30 minutes at room temperature to generate affinity resins for kinase assays. The liganded beads are blocked with excess biotin and washed with blocking buffer (SeaBlock (Pierce), 1% BSA, 0.05% Tween 20, 1 mM DTT) to remove unbound ligand and to reduce non-specific binding. Binding reactions are assembled by combining kinases, liganded affinity beads, and test compounds in 1× binding buffer (20% SeaBlock, 0.17×PBS, 0.05% Tween 20, 6 mM DTT). Test compounds are prepared as 111× stocks in 100% DMSO. Kds are determined using an 11-point 3-fold compound dilution series with three DMSO control points. All compounds for Kd measurements are distributed by acoustic transfer (non-contact dispensing) in 100% DMSO. The compounds are then diluted directly into the assays such that the final concentration of DMSO is 0.9%. All reactions are performed in polypropylene 384-well plate. Each has a final volume of 0.02 ml. The assay plates are incubated at room temperature with shaking for 1 hour and the affinity beads are washed with wash buffer (1×PBS, 0.05% Tween 20). The beads are then re-suspended in elution buffer (1× PBS, 0.05% Tween 20, 0.5 μM non-biotinylated affinity ligand) and incubated at room temperature with shaking for 30 minutes. The kinase concentration in the eluates is measured by qPCR. […] In some embodiments, provided compounds may be JAK2-selective over one or more of the following kinases: JAK1, JAK3, and Tyk2.

Kinetic Solubility Assay = type: physicochemical; conditions: aqueous buffer, kinetic from dmso stock, kinetic solubility in PBS (pH 4.0 and pH 7.4 in method; pH of table values not stated), RT
Method: Stock solutions of test compounds are prepared in DMSO at the concentration of 10 mM, and a stock solution of control compound is prepared in DMSO at the concentration of 30 mM. Diclofenac is used as positive control in the assay. 30 μL stock solution of each compound is placed into their a 96-well rack, followed by adding 970 μL of PBS at pH 4.0 and pH 7.4 into each vial of the cap-less solubility sample plate. This study is performed in duplicate. One stir stick is added to each vial and then vials are sealed using a molded PTDE/SIL 96-Well Plate Cover. The solubility sample plate is transferred to the Thermomixer comfort plate shaker and incubated at RT for 2 hours with shaking at 1100 rpm. After 2 hours incubation, stir sticks are removed using a big magnet and all samples from the solubility sample plate are transferred into the filter plate. All the samples are filtered by vacuum manifold. The filtered samples are diluted with methanol. Samples are analyzed by LC-MS/MS and quantified against a standard of known concentration in DMSO using LC coupled with Mass spectral peak identification and quantitation. The solubility values of the test compounds are calculated as follows, wherein INJ VOL is injection volume, DF is dilution factor, and STD is standard: […]

Tyk2 = biological target: T2, Tyk2 (Homo sapiens, UniProt P29597); assay: JAK Family Selectivity Assay: Tyk2 vs JAK2 binding affinity; conditions: Kd TYK2 over Kd JAK2
T2 construct: made in house; host or cells: T7 phage in BL21-derived E. coli or HEK-293 cells
T2 sequence (P29597 whole entry): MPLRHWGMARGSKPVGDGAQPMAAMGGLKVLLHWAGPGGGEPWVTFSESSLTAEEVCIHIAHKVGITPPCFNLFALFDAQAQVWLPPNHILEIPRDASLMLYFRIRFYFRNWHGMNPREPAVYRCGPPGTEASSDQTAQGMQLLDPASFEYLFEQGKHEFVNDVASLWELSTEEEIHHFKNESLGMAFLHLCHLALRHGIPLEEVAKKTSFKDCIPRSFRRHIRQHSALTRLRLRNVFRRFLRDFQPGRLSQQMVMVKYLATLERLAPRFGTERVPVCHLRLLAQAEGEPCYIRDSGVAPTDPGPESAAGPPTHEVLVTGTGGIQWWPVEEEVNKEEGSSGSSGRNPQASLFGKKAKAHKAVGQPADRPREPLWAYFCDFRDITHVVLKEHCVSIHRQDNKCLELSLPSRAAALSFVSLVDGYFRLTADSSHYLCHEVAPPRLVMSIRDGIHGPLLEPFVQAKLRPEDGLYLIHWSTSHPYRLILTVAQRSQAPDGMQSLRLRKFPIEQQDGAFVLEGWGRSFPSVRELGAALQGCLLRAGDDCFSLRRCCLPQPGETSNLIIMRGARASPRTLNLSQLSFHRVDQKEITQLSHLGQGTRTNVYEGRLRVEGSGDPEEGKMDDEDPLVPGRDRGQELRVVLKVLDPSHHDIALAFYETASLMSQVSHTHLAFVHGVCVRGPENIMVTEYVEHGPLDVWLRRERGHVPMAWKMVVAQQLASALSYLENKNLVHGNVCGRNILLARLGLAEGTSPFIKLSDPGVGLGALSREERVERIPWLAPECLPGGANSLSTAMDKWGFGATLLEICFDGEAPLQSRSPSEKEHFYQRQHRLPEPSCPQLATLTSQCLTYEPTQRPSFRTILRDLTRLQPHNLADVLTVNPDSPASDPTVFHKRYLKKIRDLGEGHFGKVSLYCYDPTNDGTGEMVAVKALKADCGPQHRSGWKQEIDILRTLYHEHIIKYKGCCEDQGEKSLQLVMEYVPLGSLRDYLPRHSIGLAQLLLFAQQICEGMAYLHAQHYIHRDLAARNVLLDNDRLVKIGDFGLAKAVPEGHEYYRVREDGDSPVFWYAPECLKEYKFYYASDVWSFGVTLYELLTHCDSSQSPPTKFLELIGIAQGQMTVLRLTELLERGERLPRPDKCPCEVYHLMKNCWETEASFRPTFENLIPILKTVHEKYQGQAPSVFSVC
Method: as §1

[1] = tested on: JAK2-mediated pSTAT5 signaling in constitutively active essential thrombocytopenia cells carrying the V617F mutation; assay: SET2-pSTAT5 Cellular Assay; type: cell-based; conditions: Homo sapiens
Method: This assay measures inhibition of JAK2-mediated pSTAT5 signaling in constitutively active essential thrombocytopenia cells carrying the V617F mutation. Cells are harvested from a flask into cell culture medium, and the number of cells is counted. The cells are diluted with culture medium and 100 μL of cell suspension (50000/well) is added into each well of a 96-well cell culture plate. A solution of test compound is added to the assay plate. The plates are covered with a lid and placed in a 37° C. 5% CO2 incubator for 4 hours. After 4 hours, the cells are spun, and the cell pellets are re-suspended with 100 μL cold PBS. Then, the cells are spun again at 4° C. and 4000 rpm for 5 min. PBS is aspirated, and 25 μL lysis buffer (with protease and phosphatase inhibitor cocktail) is added to each cell pellet. The cell lysate is shaken at 4° C. for 20 min to fully lyse the cells. The cell lysate is spun at 4° C. and 4000 rpm for 15 min, and then the supernatant is transferred into a new plate and stored at −80° C. Meso-scale discovery (MSD) is used to analyze plates as follows: a standard MSD plate is coated with capture antibody in PBS (40 μL/well) and is incubated at 4° C. overnight with shaking. The MSD plate is washed three times with 150 μL/well of 1×MSD Wash Buffer (Tris-buffered saline with 0.1% Tween® 20 detergent, TBST). The MSD plates are then blocked with 150 μL of blocking buffer (5% BSA in TBST) and shaken for 1 h at room temperature and 600 rpm. The MSD plate is washed three times with 150 μL/well of 1×MSD Wash Buffer (TBST). Sample lysates are then added to MSD plates (25 μL/well) and shaken for 1 h at room temperature and 600 rpm. The MSD plate is washed three times with 150 μL/well of 1×MSD Wash Buffer (TBST). Detection antibody (prepared in Antibody Detection buffer, 1% BSA in 1×TBST) is then added to the MSD plates, and they are shaken for 1 h at room temperature and 600 rpm. The MSD plate is washed three times with 150 μL/well of 1×MSD Wash Buffer (TBST). A secondary detection antibody (prepared in Antibody Detection buffer, 1% BSA in 1×TBST) is then added to the MSD plates, and they are shaken for 1 h at room temperature and 600 rpm. The MSD plate is washed three times with 150 μL/well of 1×MSD Wash Buffer (TBST). MSD reading buffer (1×) is added to the plates (150 μL/well), and they are diluted from 4× with water. The plates are imaged using an MSD imaging instrument according to the manufacturer's instructions.

[2] = SET-2, SET2 cells, pSTAT5, 4 hours, MSD, read-out: IC50

T1 sequence (P23458 whole entry): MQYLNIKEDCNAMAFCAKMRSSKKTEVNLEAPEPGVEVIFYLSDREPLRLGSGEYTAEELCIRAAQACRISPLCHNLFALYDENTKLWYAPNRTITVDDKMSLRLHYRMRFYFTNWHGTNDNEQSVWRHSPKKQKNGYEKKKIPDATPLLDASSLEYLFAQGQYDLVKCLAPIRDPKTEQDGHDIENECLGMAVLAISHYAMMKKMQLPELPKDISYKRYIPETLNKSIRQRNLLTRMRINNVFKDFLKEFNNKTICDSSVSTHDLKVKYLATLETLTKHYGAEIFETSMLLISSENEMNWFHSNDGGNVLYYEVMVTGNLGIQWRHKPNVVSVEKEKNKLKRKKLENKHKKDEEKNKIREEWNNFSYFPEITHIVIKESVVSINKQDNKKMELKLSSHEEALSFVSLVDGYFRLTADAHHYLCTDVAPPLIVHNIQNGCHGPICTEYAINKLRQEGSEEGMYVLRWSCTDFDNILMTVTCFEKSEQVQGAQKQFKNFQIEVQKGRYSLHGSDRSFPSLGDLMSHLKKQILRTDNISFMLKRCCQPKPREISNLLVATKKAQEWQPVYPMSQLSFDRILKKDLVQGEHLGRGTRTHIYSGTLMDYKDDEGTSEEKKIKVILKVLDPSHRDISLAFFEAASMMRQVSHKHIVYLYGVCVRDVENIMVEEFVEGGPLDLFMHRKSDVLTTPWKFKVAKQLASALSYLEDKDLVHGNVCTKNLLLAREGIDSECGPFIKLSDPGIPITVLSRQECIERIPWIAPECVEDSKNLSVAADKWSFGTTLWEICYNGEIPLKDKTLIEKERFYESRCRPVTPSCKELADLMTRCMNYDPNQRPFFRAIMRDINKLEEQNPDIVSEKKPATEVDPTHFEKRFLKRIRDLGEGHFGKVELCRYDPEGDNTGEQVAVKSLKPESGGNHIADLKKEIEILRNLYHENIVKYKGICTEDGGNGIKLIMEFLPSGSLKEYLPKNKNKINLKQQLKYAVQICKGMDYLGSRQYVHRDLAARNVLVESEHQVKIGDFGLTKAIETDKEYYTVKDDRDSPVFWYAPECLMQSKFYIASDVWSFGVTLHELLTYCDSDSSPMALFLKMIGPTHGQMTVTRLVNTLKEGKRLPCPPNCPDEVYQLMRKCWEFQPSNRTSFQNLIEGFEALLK

Row | Structure (SMILES) | JAK1/JAK2 Kd/Kd ratio (JAK1) | solubility at 2 h (Kinetic Solubility Assay) | TYK2/JAK2 Kd/Kd ratio (Tyk2) | IC50 [1, 2] | IC50 ([1]; SET-2, 4 h)
1 | CN(C)C(=O)Nc1cc(Oc2cnc3nc(Nc4cc(C(F)(F)F)cn(C)c4=O)n(C)c3c2C#N)ccn1 [Example I-4, 3-(4-((7-cyano-1-methyl-2-((1-methyl-2-oxo-5-(trifluoromethyl)-1,2-dihydropyridin-3-yl)amino)-1H-imidazo[4,5-b]pyridin-6-yl)oxy)pyridin-2-yl)-1,1-dimethylurea] | B (Kd/Kd ratio <1000 and ≥300) | 9 to 100 µM (≈ 4.75 to 52.7 µg/mL) | C (Kd/Kd ratio <300 and ≥100) |  | < 125 nM
2 | COC(=O)Nc1cc(Oc2cnc3nc(Nc4cc(C(F)(F)F)cn(C)c4=O)n(C)c3c2C#N)ccn1 [Example I-3, Methyl (4-((7-cyano-1-methyl-2-((1-methyl-2-oxo-5-(trifluoromethyl)-1,2-dihydropyridin-3-yl)amino)-1H-imidazo[4,5-b]pyridin-6-yl)oxy)pyridin-2-yl)carbamate] | A (Kd/Kd ratio ≥1000) | 0.1 to 9 µM (≈ 0.0514 to 4.63 µg/mL) | C (Kd/Kd ratio <300 and ≥100) |  | < 125 nM
3 | CCN1CCN(Cc2ccc(Nc3nc4ccc(Oc5ccnc(NC(C)=O)c5)cc4n3C)cc2C(F)(F)F)CC1 [Example R-1, reference compound] | C (Kd/Kd ratio <300 and ≥100) | 100 to 200 µM (≈ 56.8 to 114 µg/mL) | C (Kd/Kd ratio <300 and ≥100) | 200 to 1000 nM | 
4 | Cn1cc(C(F)(F)F)cc(Nc2nc3ncc(Oc4ccnc(NC(=O)OCCN5CCOCC5)c4)c(C#N)c3n2C)c1=O [Example I-15, 2-Morpholinoethyl(4-((7-cyano-1-methyl-2-((1-methyl-2-oxo-5-(trifluoromethyl)-1,2-dihydropyridin-3-yl)amino)-1H-imidazo[4,5-b]pyridin-6-yl)oxy)pyridin-2-yl)carbamate] | B (Kd/Kd ratio <1000 and ≥300) | 9 to 100 µM (≈ 5.52 to 61.4 µg/mL) | B (Kd/Kd ratio <1000 and ≥300) | < 125 nM | 
5 | Cn1c(Nc2cc3n(n2)CCC32CCC2)nc2ncc(Oc3ccnc(NC(=O)C4CC4)c3)c(C#N)c21 [Example I-122, N-(4-((7-cyano-2-((5′,6′-dihydrospiro[cyclobutane-1,4′-pyrrolo[1,2-b]pyrazol]-2′-yl)amino)-1-methyl-1H-imidazo[4,5-b]pyridin-6-yl)oxy)pyridin-2-yl)cyclopropanecarboxamide] | D (Kd/Kd ratio <100) | 0.1 to 9 µM (≈ 0.0496 to 4.46 µg/mL) | D (Kd/Kd ratio <100) | < 125 nM | 

Second part, led by results:

Row | JAK1/JAK2 Kd/Kd ratio (JAK1) | solubility at 2 h (Kinetic Solubility Assay) | TYK2/JAK2 Kd/Kd ratio (Tyk2) | IC50 [1, 2] | Structure (SMILES) | IC50 ([1]; SET-2, 4 h)
6 | B (Kd/Kd ratio <1000 and ≥300) | 0.1 to 9 µM (≈ 0.0526 to 4.73 µg/mL) | D (Kd/Kd ratio <100) | < 125 nM | CC(=O)Nc1cc(Oc2cnc3nc(Nc4cc(C(F)(F)F)cn(C)c4=O)n(C)c3c2Cl)c(F)cn1 [Example I-88, N-(4-((7-chloro-1-methyl-2-((1-methyl-2-oxo-5-(trifluoromethyl)-1,2-dihydropyridin-3-yl)amino)-1H-imidazo[4,5-b]pyridin-6-yl)oxy)-5-fluoropyridin-2-yl)acetamide] | 
7 | A (Kd/Kd ratio ≥1000) | 0.1 to 9 µM (≈ 0.0584 to 5.25 µg/mL) | C (Kd/Kd ratio <300 and ≥100) | < 125 nM | CO[C@H]1CCN(C(=O)Nc2cc(Oc3cnc4nc(Nc5cc(C(F)(F)F)cn(C)c5=O)n(C)c4c3C#N)ccn2)C1 [Example I-14, (S)-N-(4-((7-cyano-1-methyl-2-((1-methyl-2-oxo-5-(trifluoromethyl)-1,2-dihydropyridin-3-yl)amino)-1H-imidazo[4,5-b]pyridin-6-yl)oxy)pyridin-2-yl)-3-methoxypyrrolidine-1-carboxamide] | 
8 | C (Kd/Kd ratio <300 and ≥100) | 0.1 to 9 µM (≈ 0.057 to 5.13 µg/mL) | C (Kd/Kd ratio <300 and ≥100) | < 125 nM | Cn1cc(C(F)(F)F)cc(Nc2nc3ncc(Oc4ccnc(NC(=O)O[C@@H]5CCOC5)c4)c(C#N)c3n2C)c1=O [Example I-18, (R)-Tetrahydrofuran-3-yl(4-((7-cyano-1-methyl-2-((1-methyl-2-oxo-5-(trifluoromethyl)-1,2-dihydropyridin-3-yl)amino)-1H-imidazo[4,5-b]pyridin-6-yl)oxy)pyridin-2-yl)carbamate] | 
